Test results as given in BindingDB's records for doi:10.7270/Q2DF6PMF (Nmmlsc, 2007).
Counter-ions that a name gives are not always drawn.

biological target: T1, N-formyl peptide receptor 2 (Homo sapiens, UniProt P25090); assay: FPRL1 binding inhibitor potency, dose response, cell-based, FPR counter-screen, fluorescent ligand (AID 520)
T1 sequence (P25090 whole entry): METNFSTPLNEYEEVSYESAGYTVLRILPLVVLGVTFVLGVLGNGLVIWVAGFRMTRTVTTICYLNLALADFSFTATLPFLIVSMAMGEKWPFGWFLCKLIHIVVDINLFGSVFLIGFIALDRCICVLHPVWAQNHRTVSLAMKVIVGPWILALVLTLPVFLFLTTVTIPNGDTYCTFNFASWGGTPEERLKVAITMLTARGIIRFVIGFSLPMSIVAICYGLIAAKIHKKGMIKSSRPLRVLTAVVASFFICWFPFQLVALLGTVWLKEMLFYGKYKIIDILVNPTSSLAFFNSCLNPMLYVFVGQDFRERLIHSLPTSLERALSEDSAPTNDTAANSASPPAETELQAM

Row | SMILES | IC50 | Ki
1 | COc1ccccc1Oc1c(C)oc2cc(OC(=O)c3ccco3)ccc2c1=O [2-furancarboxylic acid [3-(2-methoxyphenoxy)-2-methyl-4-oxo-1-benzopyran-7-yl] ester] | > 66.7 µM | –
2 | CCOC(=O)c1c(NC(=O)c2cc(C3CC3)on2)sc2c1CCCC2 [2-[(5-cyclopropylisoxazole-3-carbonyl)amino]-4,5,6,7-tetrahydrobenzothiophene-3-carboxylic acid ethyl ester] | > 66.7 µM | –
3 | Cc1[nH]n2c(=O)c3c(nc2c1-c1cccc2ccccc12)CCC3 [MLS000530451] | > 66.7 µM | –
4 | O=C1C(=O)N(Cc2ccccc2)C(c2ccco2)C1C(=O)c1ccco1 (stereo not given) [1-Benzyl-4-(furan-2-carbonyl)-5-furan-2-yl-3-hydroxy-1,5-dihydro-pyrrol-2-one] | > 66.7 µM | > 40.3 µM
5 | CCCS(=O)(=O)N1CCCC(C(=O)N2CCC(Cc3ccccc3)CC2)C1 (stereo not given) [(4-benzylpiperidin-1-yl)-(1-propylsulfonylpiperidin-3-yl)methanone] | > 66.7 µM | –
6 | COc1ccc2c(=O)c(-c3cnn(-c4ccccc4)c3)c(C)oc2c1 [7-methoxy-2-methyl-3-(1-phenyl-1H-pyrazol-4-yl)-4H-chromen-4-one] | > 66.7 µM | –
7 | CCOC(=O)Cc1cc(=O)n2[nH]c(C)c(-c3ccc(OC)cc3)c2n1 | > 66.7 µM | –
8 | CC1CCN(S(=O)(=O)c2ccc3c(c2)oc(=O)n3CC(=O)NCc2ccc3c(c2)OCO3)CC1 [2-[2-keto-6-(4-methylpiperidino)sulfonyl-1,3-benzoxazol-3-yl]-N-piperonyl-acetamide] | > 66.7 µM | –
9 | COC(=O)c1[nH]c(C)c(C(=O)C2C(=O)C(=O)N(CCN3CCOCC3)C2c2cccnc2)c1C (stereo not given) [4-[(E)-hydroxy-[1-[2-(4-morpholinyl)ethyl]-4,5-dioxo-2-(3-pyridinyl)-3-pyrrolidinylidene]methyl]-3,5-dimethyl-1H-pyrrole-2-carboxylic acid methyl ester] | > 66.7 µM | > 40.3 µM
10 | CCOc1cccc(C(=O)C2C(=O)C(=O)N(Cc3cccnc3)C2c2ccco2)c1 (stereo not given) [(4Z)-4-[(3-ethoxyphenyl)-hydroxymethylidene]-5-(2-furanyl)-1-(3-pyridinylmethyl)pyrrolidine-2,3-dione] | > 66.7 µM | > 40.3 µM
11 | N[C@@H](Cc1ccc(O)c(I)c1)C(=O)O | > 66.7 µM | –
12 | O=C(NC1CCCCC1)c1sc(=S)n2c1[nH]c(=O)c1ccccc12 [SMR000030293] | > 66.7 µM | –
13 | COc1ccc(CCN2C(=O)C(=O)C(C(=O)c3ccco3)C2c2cccs2)cc1OC (stereo not given) [1-[2-(3,4-Dimethoxy-phenyl)-ethyl]-4-(furan-2-carbonyl)-3-hydroxy-5-thiophen-2-yl-1,5-dihydro-pyrrol-2-one] | > 66.7 µM | > 40.3 µM
14 | COc1ccccc1C1C(C(=O)c2ccccc2)C(=O)C(=O)N1CC(C)C (stereo not given) [(4Z)-4-[hydroxy(phenyl)methylene]-1-isobutyl-5-(2-methoxyphenyl)pyrrolidine-2,3-quinone] | > 66.7 µM | > 40.3 µM
15 | COc1ccc(-n2c(Cc3cccn3C)nnc2SCC(=O)Nc2ccc(Cl)cc2)cc1 [MLS000118695] | > 66.7 µM | –
16 | COc1ccc2c(=O)c(N3C(=O)c4ccccc4C3=O)c(C)oc2c1 [2-(4-keto-7-methoxy-2-methyl-chromen-3-yl)isoindoline-1,3-quinone] | > 66.7 µM | –
17 | CN1C(=O)/C(=C2\SC(=S)N(C(CCC(=O)O)C(=O)O)C2=O)c2ccccc21 (stereo not given) [SMR000054993] | > 66.7 µM | –
18 | CCN(CC)c1ccc(C=NC(C#N)C(=N)C#N)cc1 (stereo not given) [SMR000023871] | > 66.7 µM | > 40.3 µM
19 | COc1cccc2c1C(=O)c1c(O)c3c(c(O)c1C2=O)C[C@@](O)(C(C)=O)C[C@@H]3O[C@H]1C[C@H](N)[C@H](O)[C@H](C)O1 [(7S,9S)-9-acetyl-7-[(2R,4S,5S,6S)-4-amino-5-hydroxy-6-methyloxan-2-yl]oxy-6,9,11-trihydroxy-4-methoxy-8,10-dihydro-7H-tetracene-5,12-dione;hydrochloride] | 25.1 µM | –
20 | COc1ccccc1NC(=O)CSc1nnc(Cn2nnc(-c3ccccc3)n2)n1-c1ccccc1 [MLS000032410] | > 66.7 µM | –
21 | Cc1nc2c(C#N)c[nH]n2c(=O)c1Cc1ccccc1 [5-methyl-7-oxo-6-(phenylmethyl)-1H-pyrazolo[1,5-a]pyrimidine-3-carbonitrile] | > 66.7 µM | –
22 | O=C(c1ccc(Cl)cc1)N(Cc1cccs1)C1CCS(=O)(=O)C1 (stereo not given) [4-chloro-N-(1,1-diketothiolan-3-yl)-N-(2-thenyl)benzamide] | > 66.7 µM | –
23 | C=CCOc1ccc(C2C(C(=O)c3cccs3)C(=O)C(=O)N2c2nnc(C)s2)cc1 (stereo not given) [1-(5-methyl-1,3,4-thiadiazol-2-yl)-4-oxidanyl-2-(4-prop-2-enoxyphenyl)-3-thiophen-2-ylcarbonyl-2H-pyrrol-5-one] | > 66.7 µM | > 40.3 µM

Continued, values first:

Row | IC50 | Ki | SMILES
24 | > 66.7 µM | > 40.3 µM | COc1ccc(OC)c(C2C(C(=O)c3ccco3)C(=O)C(=O)N2CCCN2CCOCC2)c1 (stereo not given) [2-(2,5-dimethoxyphenyl)-3-(furan-2-carbonyl)-4-hydroxy-1-(3-morpholin-4-ylpropyl)-2H-pyrrol-5-one]
25 | > 66.7 µM | – | CCOC(=O)CCn1nc(-c2ccc(Cl)cc2)cc1N [3-[5-amino-3-(4-chlorophenyl)-1-pyrazolyl]propanoic acid ethyl ester]
26 | > 66.7 µM | – | COc1cccc(-c2nc(CS(=O)(=O)CC(=O)NCCC(C)C)c(C)o2)c1 [2-[[2-(3-methoxyphenyl)-5-methyl-1,3-oxazol-4-yl]methylsulfonyl]-N-(3-methylbutyl)acetamide]
27 | > 66.7 µM | > 40.3 µM | COCCN1C(=O)C(=O)C(C(=O)c2ccco2)C1c1cccc(Oc2ccccc2)c1 (stereo not given) [3-(furan-2-carbonyl)-4-hydroxy-1-(2-methoxyethyl)-2-(3-phenoxyphenyl)-2H-pyrrol-5-one]
28 | > 66.7 µM | > 40.3 µM | O=C1C(=O)N(c2ncccn2)C(c2ccc(Cl)cc2)C1C(=O)c1ccco1 (stereo not given) [2-(4-chlorophenyl)-3-(furan-2-carbonyl)-4-hydroxy-1-pyrimidin-2-yl-2H-pyrrol-5-one]
29 | > 66.7 µM | > 40.3 µM | COCCCN1C(=O)C(=O)C(C(=O)c2ccco2)C1c1cccc(Br)c1 (stereo not given) [2-(3-bromophenyl)-3-(furan-2-carbonyl)-4-hydroxy-1-(3-methoxypropyl)-2H-pyrrol-5-one]
30 | > 66.7 µM | > 40.3 µM | COc1ccc(C2C(C(=O)c3cccs3)C(=O)C(=O)N2c2nnc(C)s2)cc1OC (stereo not given) [2-(3,4-dimethoxyphenyl)-1-(5-methyl-1,3,4-thiadiazol-2-yl)-4-oxidanyl-3-thiophen-2-ylcarbonyl-2H-pyrrol-5-one]
31 | > 66.7 µM | – | CCOC(=O)c1c(-c2ccc(-c3ccccc3)cc2)csc1NC(=O)C1C2CCC(O2)C1C(=O)O (stereo not given)
32 | > 66.7 µM | > 40.3 µM | COC(=O)c1[nH]c(C)c(C(=O)C2C(=O)C(=O)N(CCCN3CCOCC3)C2c2ccccn2)c1C (stereo not given) [methyl 4-{[4-hydroxy-1-[3-(4-morpholinyl)propyl]-5-oxo-2-(2-pyridinyl)-2,5-dihydro-1H-pyrrol-3-yl]carbonyl}-3,5-dimethyl-1H-pyrrole-2-carboxylate]
33 | > 66.7 µM | – | Cc1ccc(F)c(NC(=O)C2CCCCC2C(=O)O)c1 (stereo not given) [2-[(2-fluoranyl-5-methyl-phenyl)carbamoyl]cyclohexane-1-carboxylic acid]
34 | > 66.7 µM | – | COc1ccc(-c2c(C)oc3c(CN4CCN(CCO)CC4)c(O)ccc3c2=O)cc1OC [3-(3,4-dimethoxyphenyl)-7-hydroxy-8-[[4-(2-hydroxyethyl)-1-piperazinyl]methyl]-2-methyl-1-benzopyran-4-one]
35 | > 66.7 µM | – | O=c1c2c(nc3c(-c4ccc(Cl)cc4)c[nH]n13)CCCC2
36 | > 66.7 µM | – | CCOc1ccccc1Oc1c(C)oc2cc(OC(=O)c3ccco3)ccc2c1=O [2-furancarboxylic acid [3-(2-ethoxyphenoxy)-2-methyl-4-oxo-1-benzopyran-7-yl] ester]
37 | > 66.7 µM | > 40.3 µM | O=C1C(=O)N(CCOCCO)C(c2cccs2)C1C(=O)c1cccs1 (stereo not given) [1-[2-(2-hydroxyethyloxy)ethyl]-4-oxidanyl-2-thiophen-2-yl-3-thiophen-2-ylcarbonyl-2H-pyrrol-5-one]
38 | > 66.7 µM | – | CCCCn1c(NC(C)=O)c(C#N)c2nc3ccccc3nc21 [MLS000079917]
39 | > 66.7 µM | > 40.3 µM | O=C1CCCC(=O)C1C(C#Cc1ccccc1)C1C(=O)CCCC1=O [3-hydroxy-2-[1-(2-hydroxy-6-keto-cyclohexen-1-yl)-3-phenyl-prop-2-ynyl]cyclohex-2-en-1-one]
40 | > 66.7 µM | – | O=C(NC1CCCC1)c1sc(=S)n2c1[nH]c(=O)c1ccccc12
41 | > 66.7 µM | > 40.3 µM | COc1cccc(C2C(C(=O)c3ccc(OC)c(OC)c3)C(=O)C(=O)N2c2cc(C)on2)c1 (stereo not given) [(4E)-4-[(3,4-dimethoxyphenyl)-hydroxy-methylene]-5-(3-methoxyphenyl)-1-(5-methylisoxazol-3-yl)pyrrolidine-2,3-quinone]
42 | > 66.7 µM | > 40.3 µM | COc1cc(C2C(C(=O)c3ccco3)C(=O)C(=O)N2c2cc(C)on2)cc(Br)c1O (stereo not given) [2-(3-bromanyl-5-methoxy-4-oxidanyl-phenyl)-3-(furan-2-ylcarbonyl)-1-(5-methyl-1,2-oxazol-3-yl)-4-oxidanyl-2H-pyrrol-5-one]
43 | > 66.7 µM | – | Cc1ccccc1Nc1cc2ccccc2c(O)n1 [3-[(2-methylphenyl)amino]-2H-isoquinolin-1-one]
44 | > 66.7 µM | – | C=CCn1c(SCCCC)nc(O)cc1=O [1-allyl-2-(butylthio)-6-hydroxy-pyrimidin-4-one]
45 | > 66.7 µM | > 40.3 µM | CC1=NC(C)=C(C#N)C(c2ccc3ncccc3c2)C1C#N (stereo not given)
46 | > 66.7 µM | > 40.3 µM | COCCCN1C(=O)C(=O)C(C(=O)c2ccc3c(c2)CC(C)O3)C1c1cccnc1 (stereo not given) [(4E)-1-(3-methoxypropyl)-4-[(2-methyl-2,3-dihydro-1-benzofuran-5-yl)-oxidanyl-methylidene]-5-pyridin-3-yl-pyrrolidine-2,3-dione]
